{
  "source": "patent US5840893A",
  "about": "“Compounds for treating infectious diseases” (priority 1996, dated 1998)",
  "key": {"HIV-1 [1]": {"tested_on": "HIV-1", "test": "AZT and Compound No. 2 in combination on HIV-1 infected monocyte cultures (RT activity)", "format": "cell-based, HIV-1 in human monocyte cultures", "details": "for RT activity: 100 nM Compound No. 2, AZT 0", "experimental": "Primary human monocytes were obtained from peripheral blood by Ficoll-Hypaque centrifugation and adherence to plastic as described previously. Gartner S. P., et al., 1986, Science 233:215. Briefly, after Ficoll-Hypaque (Pharmacia) separation, PBMCs were washed 4 times with DMEM (the last wash was done at 800 rpm to remove platelets) and resuspended in monocyte culture medium [DMEM supplemented with 1 mM glutamine, 10% heat-inactivated human serum, 1% penicillin+streptomycin mixture (Sigma)] at a density of 6×10^6 cells/ml. Cells were seeded in 24-well plates (1 ml per well) and incubated for 2 h at 37° C., 5% CO2. Following incubation, cells were washed 3 times with DMEM to remove non-adherent cells and incubation was continued in monocyte culture medium supplemented with 250 U/ml human M-CSF (Sigma). Cells were allowed to mature for 7 days prior to infection with the monocyte-tropic strain, HIV-1ADA. Nuovo, G. J., et al., 1992, Diagn. Mol. Pathol. 1:98. Two hours after infection, cells were washed with medium and cultured in RPMI supplemented with 10% human serum. In experiments where PCR analysis was performed, virus was pretreated with RNAse-free DNAse (Boehinger-Mannheim)for 2 h at room temperature and then filtered though a 0.2 μm pore nitrocellulose filter prior to infection.\n(§1) For the reverse transcriptase (RT) assay, 10 μl of culture supernatant was added to 40 μl of reaction mixture (final composition was 50 mM Tris-HCl, pH 7.8; 20 mM KCl; 5 mM MgCl2; 1 mM DTT; 0.1% Triton X-100; 0.2 OD/ml polyA; 0.2 OD/ml oligo(dT)12-18; and 40 μCi/ml ^3 H-dTTP (76 Ci/mmol, DuPont) and incubated 2 hr at 37° C. 5 μl of the reaction mixture was then spotted onto the DE 81 (Whatman) paper. Paper was air dried and washed 5 times with 5% Na2 HPO4, followed by rinsing with distilled water. After air drying, paper was put on a Flexi Filter plate (Packard), covered with scintillation fluid and counted in a Top Count Microplate Counter (Packard). Results are expressed as counts per minute in 1 ml of supernatant (cpm/ml).\nIn view of these premises, the effects on HIV-1 replication in human monocyte cultures of the various concentrations of AZT, alone or in combination with 100 nM Compound No. 2, were tested using the protocols of Sections 6.2.1 and 6.2.2. Drugs were added to the monocyte cultures together with HIV-1 at about 10^5 TCID/ml. The concentration of drugs was maintained on refeeding. HIV-1 replication was assessed by assay of the supernatant for reverse transcriptase activity. The results are expressed as mean±std. dev. (cpmx10^-3) in Table V."}, "HIV-1ADA": {"tested_on": "HIV-1ADA", "test": "RT activity in supernatant of HIV-1ADA-infected mitogen-stimulated peripheral blood leukocytes", "format": "cell-based, HIV-1ADA in human PBMC", "experimental": "PBMCs were purified by Ficoll-Hypaque centrifugation and activated by 10 μg/ml PHA-P (Sigma) and 20 U/ml recombinant human IL-2 (rhIL-2) in RPMI 1640 supplemented with 10% FBS (HyClone). After 24 h incubation, cells were washed and inoculated with HIV-1ADA in RPMI 1640 supplemented with 10% FBS. After a 2 h adsorption, free virus was washed away and cells were cultured in RPMI 1640 supplemented with 10% FBS and 20 U/ml rhIL-2.\nas §1"}, "HIV-1 [2]": {"tested_on": "HIV-1", "test": "Inhibition of HIV-1 replication in cultured macrophages (Table I)", "format": "cell-based", "details": "Human immunodeficiency virus 1, Macrophage; 50% inhibition of viral growth, RT or p24, macrophages", "experimental": "A quantitative measurement of the activity of the compounds of the invention to block the replication of HIV-1 in non-dividing cells can be determined by culture of a macrophage-tropic strain of HIV-1 on peripheral blood-derived macrophages. The cells are cultured for 5-6 days prior to infection in a medium consisting of DMEM supplemented with 10% type A/B human serum and 200 U/ml Macrophage Colony Stimulating Factor, with half the medium changed after 3 days, to reach a density of about 10^6 cells per 5 ml well. A macrophage-tropic viral stock may be grown on these cells. The concentration of infectious particles in the stock is estimated by measurement of p24 antigen concentration.\nTo test the effect of compounds of the invention on HIV- 1 infection in the above-described culture system, the medium is removed and replaced with medium containing HIV-1 at a concentration of 1 ng of p24 (10^4 TCID50 /ml (TCID=tissue culture infectious doses)) and a known concentration of the compound of the invention (the inhibitor). After 24 hours, the cultures are washed to remove non-adherent virus and the culture is re-fed with medium containing the inhibitor at the desired concentration. The amount of replication of HIV-1 is estimated by an assay of the reverse transcriptase activity or by an assay of the concentration of p24 antigen in the culture medium every 2-3 days throughout the post-infection period. In a preferred embodiment the anti-HIV potency of the candidate drug is measured by comparison of the concentration of reverse transcriptase (RT) or of p24 antigen in the medium of the treated and control cultures at the time of the peak of these values in non-treated control cultures, that is about day 5 or 6 post-infection. Repetition at various levels of inhibitor allows for the calculation of the concentration of inhibitor that achieves 50% inhibition of viral growth, IC50. Table I discloses the IC50 of various inhibitors."}, "monocyte cultures": {"tested_on": "monocyte cultures", "test": "Cytotoxicity in monocyte cultures (LDH release, trypan blue exclusion)", "format": "cell-based, human", "details": "up to 10 μM; LDH release and trypan blue exclusion"}, "reverse transcriptase": {"target": "T1, reverse transcriptase (HIV-1 M:B_HXB2R, UniProt P04585)", "T1 construct": "infection experiments used HIV-1 ADA virus supernatant", "test": "Inhibition of reverse transcriptase", "format": "biochemical", "details": "data not shown"}},
  "note": "Entries after “also recorded” stand apart in the source; their conditions may differ.",
  "data": [
    {"smiles": "CC(=O)c1cc(Nc2cc(C)[n+](C)c(N)n2)cc(C(C)=O)c1.[I-]", "note": "[Compound No. 2, 2-amino-4-(3,5-diacetylphenyl)amino-1,6-dimethylpyrimidinium iodide]", "values": [
      {"measurement": "inhibition at 0.1 µM", "setting": "HIV-1 [1]; Human immunodeficiency virus 1, Monocyte, 264 h, day-11, 100 nM Compound No. 2 alone, read-out: reduction in RT activity", "result": "~60", "unit": "%"},
      {"measurement": "RT activity", "setting": "HIV-1 [1]; day-7", "result": "0.37 ± 0.07", "unit": "cpmx10^-3"},
      {"measurement": "RT activity", "setting": "HIV-1 [1]; day-11", "result": "0.72 ± 0.30", "unit": "cpmx10^-3"},
      {"measurement": "reduction in viral output", "setting": "HIV-1ADA; 1 and 10 μM, lower MOI (1 ng p24/10^6 cells), FIG. 3B", "result": "~2", "unit": "fold"},
      {"measurement": "anti-viral effect on activated PBLs / replicating cells", "setting": "HIV-1ADA; actively dividing cell populations, FIG. 3", "result": "much less expressed in these actively dividing cell populations; also recorded: No anti-viral effect was detected"},
      {"measurement": "effect on viral production", "setting": "HIV-1ADA; up to 10 μM, higher MOI (10 ng p24/10^6 cells), FIG. 3A", "result": "only a marginal effect on viral production"},
      {"measurement": "IC50", "setting": "HIV-1 [2]", "result": 1, "unit": "nM"},
      {"measurement": "cytotoxic effect", "setting": "monocyte cultures", "result": "without toxic effects; also recorded: no cytotoxic effect was observed"},
      {"measurement": "inhibition of reverse transcriptase", "setting": "reverse transcriptase", "result": "does not inhibit reverse transcriptase"}
    ]}
  ]
}
